# From paper PMC13385394, “Cryo-EM Structure of the TRPC1/5 Heteromer Enables Design of Antidepressant and Anxiolytic Drug with Reduced Side Effects” (Nature Communications, 2026)
# Tests used:
# TRPC4 homomer = target: T1, TRPC4 homomer (Homo sapiens, UniProt Q9UBN4); test: Whole-cell patch-clamp, inhibition of TRPC4 homomer; format: cell-based; conditions: read-out: IC50, TRPC4 homomers
# T1 construct: expressed in transfected cells
# T1 sequence (Q9UBN4 1-977): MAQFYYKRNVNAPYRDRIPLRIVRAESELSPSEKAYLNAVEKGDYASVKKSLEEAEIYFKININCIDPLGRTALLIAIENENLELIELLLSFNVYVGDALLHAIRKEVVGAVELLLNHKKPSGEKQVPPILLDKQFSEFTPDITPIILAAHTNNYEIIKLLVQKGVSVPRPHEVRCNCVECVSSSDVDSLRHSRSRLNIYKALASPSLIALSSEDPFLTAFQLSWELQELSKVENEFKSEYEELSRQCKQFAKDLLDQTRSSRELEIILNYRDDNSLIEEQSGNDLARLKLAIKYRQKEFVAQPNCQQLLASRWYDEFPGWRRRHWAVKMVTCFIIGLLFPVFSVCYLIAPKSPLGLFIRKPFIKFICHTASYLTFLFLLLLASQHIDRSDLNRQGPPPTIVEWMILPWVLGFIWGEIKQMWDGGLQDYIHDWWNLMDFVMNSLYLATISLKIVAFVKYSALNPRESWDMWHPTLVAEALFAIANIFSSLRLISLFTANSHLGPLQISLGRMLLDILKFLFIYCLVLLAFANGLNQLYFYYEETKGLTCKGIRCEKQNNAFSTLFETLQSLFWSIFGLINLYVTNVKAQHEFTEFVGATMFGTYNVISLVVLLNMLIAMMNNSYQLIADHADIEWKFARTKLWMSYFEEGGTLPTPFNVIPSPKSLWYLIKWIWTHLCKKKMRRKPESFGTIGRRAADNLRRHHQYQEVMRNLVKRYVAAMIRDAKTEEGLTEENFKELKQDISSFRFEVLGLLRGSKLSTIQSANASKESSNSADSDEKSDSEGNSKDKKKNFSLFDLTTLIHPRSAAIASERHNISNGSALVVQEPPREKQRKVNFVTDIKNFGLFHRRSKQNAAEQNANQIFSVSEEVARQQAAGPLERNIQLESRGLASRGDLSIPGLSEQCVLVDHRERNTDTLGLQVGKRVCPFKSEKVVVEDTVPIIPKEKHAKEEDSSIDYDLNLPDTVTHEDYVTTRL
# TRPC7 homomer = target: T2, TRPC7 homomer (Homo sapiens, UniProt Q9HCX4); test: Whole-cell patch-clamp, inhibition of TRPC7 homomer; format: cell-based
# T2 construct: expressed in transfected cells
# T2 sequence (Q9HCX4 1-862): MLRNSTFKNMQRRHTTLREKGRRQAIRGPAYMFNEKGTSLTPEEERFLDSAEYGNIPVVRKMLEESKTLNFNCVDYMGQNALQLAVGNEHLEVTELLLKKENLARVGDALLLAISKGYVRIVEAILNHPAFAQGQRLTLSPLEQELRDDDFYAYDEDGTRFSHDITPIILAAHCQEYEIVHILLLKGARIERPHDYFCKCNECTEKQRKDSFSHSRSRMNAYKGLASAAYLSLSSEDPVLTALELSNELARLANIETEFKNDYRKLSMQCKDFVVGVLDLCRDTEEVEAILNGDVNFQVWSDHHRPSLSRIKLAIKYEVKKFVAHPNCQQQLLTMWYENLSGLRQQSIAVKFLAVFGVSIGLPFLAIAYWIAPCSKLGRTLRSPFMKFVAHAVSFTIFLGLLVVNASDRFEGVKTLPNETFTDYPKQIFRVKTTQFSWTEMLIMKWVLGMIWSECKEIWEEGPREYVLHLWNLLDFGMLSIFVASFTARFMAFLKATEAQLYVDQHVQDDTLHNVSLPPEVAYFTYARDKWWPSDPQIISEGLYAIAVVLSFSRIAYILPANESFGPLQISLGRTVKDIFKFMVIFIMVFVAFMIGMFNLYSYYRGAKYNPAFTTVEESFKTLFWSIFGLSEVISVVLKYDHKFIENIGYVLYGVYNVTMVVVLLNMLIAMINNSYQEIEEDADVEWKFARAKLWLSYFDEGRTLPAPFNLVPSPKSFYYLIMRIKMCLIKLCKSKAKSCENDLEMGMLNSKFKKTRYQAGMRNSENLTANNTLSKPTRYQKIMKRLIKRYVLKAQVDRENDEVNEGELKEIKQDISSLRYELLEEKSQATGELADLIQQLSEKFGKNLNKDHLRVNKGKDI
# From the text: Error bars represent the standard error of the mean (SEM, n = 5 independent cells).
# [1] = tested on: TRPC1 or TRPC5 mutations within the TRPC1/5 heteromer; test: Whole-cell patch-clamp, inhibition of TRPC1/5 heteromers carrying TRPC1 or TRPC5 mutations (e.g. TRPC1 F595A); format: cell-based; conditions: TRPC1 F595A/C5 vs WT TRPC1/5
# From the text: The full-length hTRPC5 or truncated mTRPC5, and the full-length hTRPC1 constructs was respectively co-transfected in a plasmid ration 1:3 (w/w) into HEK293T cells (from the ATCC). As previously described, a mCherry was inserted into TRPC5 constructs and a GFP was inserted at the C terminus of TRPC1. Therefore, Cells with red and green fluorescence were selected for whole-cell patch recordings (HEKA EPC10 amplifier, […] software (https://www.heka.com/downloads/downloads_main.html#down_patchmaster)). A 1-s ramp protocol from −100 to +100 mV was applied at a frequency of 0.2 Hz. Signals were sampled at 50 kHz and filtered at 2.9 kHz. The pipette solution contained 130 mM CsCl, 1 mM MgCl2, 5.7 mM CaCl2, 10 mM EGTA, and 10 mM Hepes (calculated free Ca^2+, 200 nM), and the pH was titrated to 7.2 using CsOH[40]. The standard bath solution contained 140 mM NaCl, 5 mM KCl, 1 mM MgCl2, 2 mM CaCl2, 10 mM Hepes, and 10 mM D-glucose, and the pH was adjusted to 7.4 with NaOH (1 M). The recording chamber (150 μL) was perfused at a rate of ~2 mL/min. All recordings were performed at room temperature. In this experiment, TRPC5 homomers or TRPC1/5 heteromers were activated using the TRPC1/4/5 agonist Englerin A (EA).
# Error bars represent the standard error of the mean (SEM, n = 6 independent
# Error bars represent the standard error of the
# 110 mean (SEM, n = 5 independent cells).
# mCPP-induced anxiety = test: Marble-burying test (MBT), mCPP-induced anxiety model; conditions: mCPP mice; single dose
smiles,measurement,setting,value
CN(C)CCCCn1c(=O)c2c(nc(Oc3cccc(Cl)c3)n2Cc2ccc(Cl)cc2)n(C)c1=O [H08],IC50,TRPC4 homomer,2380 nM
same,IC50,TRPC7 homomer,> 10000 nM
same,inhibition of TRPC7,TRPC7 homomer; 10 μM,no more than 40%
same,increase in IC50 on alanine substitution of F595 in TRPC1,[1],~ 100 fold
same,MBT number of marbles buried,mCPP-induced anxiety,reducing the number of marbles buried
same,OFT total distance traveled,healthy C57BL/6J mice,no significant effect
